Series [1] has as its system pAKT-S473 in PC-3 cells (TORC2). The series is described as follows: Cellular p-AKT (ser473) AlphaScreen assay in PC-3 cells (TORC2 activity). Format: cell-based, human. On the procedure:
The target product profile for 1 and the next-generation analogs described here was for a dual inhibitor against both TORC1 and TORC2.
FRAP1 (mTOR) recombinant protein and GFP-4E-BP1 were purchased from Invitrogen (Carlsbad, CA, US).
The kinase activity assay was conducted in 50 mM Hepes buffer containing 10 mM MgCl2, 0.01% Brij, 0.2 mM EDTA, 2 mM DTT and 1% DMSO (after compound addition) at pH 7.3.
The IC50 value for each compound was determined in the presence of compound (various concentrations, from 0 to 10 μM) and a fixed amount of ATP (50 μM, final concentration), substrate GFP-4E-BP1 (400 nM, final concentration). The enzymatic reaction was initiated by adding FRAP1 (mTOR) (2 nM, final concentration). The assay was conducted at room temperature (~22 °C). After 30 min, the enzymatic reaction was stopped using Tb-anti-p4E-BP1 (2 nM final concentration, Invitrogen) and EDTA (20 mM final concentration, Sigma) in TR-FRET dilution buffer provided by Invitrogen. All the reagents were dispensed using a Multidrop Combi reagent dispenser (ThermoFisher Scientific, Waltham, […]
The release of product was detected using a BMG PHERAstar plate reader (BMG LABTECH, Ortenberg, Germany) and the Lantha Screen module (337 nm excitation wavelength) and measuring the ratio of fluorescence 520/490 nm (emission wavelengths). Experimental data was fitted using Eq. (1):
Vi and Vo are the rates of the enzyme activity in the presence and in the absence of inhibitor; n is the Hill coefficient; I is the free inhibitor concentration; IC 50 is a measure of potency that is equivalent to a […]
Cellular p-AKT (ser473) assay in PC-3 cells
PC-3 cells (PTEN deleted, human prostate cell line) were maintained in F12K media with 10% heat-inactivated fetal bovine serum (FBS) in 37 °C, 5% CO2 incubator. This method describes the procedure […]
from Perkin Elmer (catalog# TGRAS500). On day 1, 50,000 PC-3 cells were plated in 160 µL complete […]
Plates were placed in 37 °C, 5%
CO2 incubator for 24 h. On day 2, all media was removed and replaced with 160 µL starvation media which is F12K media (no FBS) and 0.1% BSA. Plates are placed in 37 °C, 5% CO2 incubator for 16 h. On day 3, compounds were both solubilized and serially diluted in DMSO and added to a secondary plate containing starvation media. 40 µL of compound/starvation media were added to the 160 µL in cell plate and plates were placed back in the incubator for 1 h. Cells were then activated by adding 22 µL FBS (for a final concentration of 10% FBS) for 10 min in the incubator. Media was removed from the well and cells were lysed in 100 µL SureFire kit lysis buffer and then shake n for 15 min at 900 rpm. AlphaScreen […]
assay was performed according to manufacturer’s instructions. 4 µL of lysate was added to PerkinElmer 96-well Proxiplate then 5 µL of Reaction Buffer plus Activation Buffer. Plates were shaken for 2 h at room temperature. 2 µL of Donor Beads in Dilution Buffer were added to the plate and the plate was shaken for 2 h at room temperature. The plate was read using BMG Labtech PHERAstar using AlphaScreen settings. Each analog was run in duplicate wells and a single IC50 value was calculated in […]
A general note: Bead proximity is the source of the signal in Alpha formats.

Series [2] in a line: Human liver microsome intrinsic clearance. The series is classed as in vitro ADME. To be noted: apparent intrinsic clearance, scaled. On the technique in general: Liver microsomes are vesicles of endoplasmic reticulum, rich in cytochrome P450 enzymes.
In a further series the test system is PI3Kα. The series is described as follows: PI3Kα enzyme selectivity (PI3Kα IC50 over mTOR IC50). Format: biochemical. The settings on record: ratio of PI3Kα enzyme IC50 over mTOR enzyme IC50.
[3] abbreviates: Homo sapiens, PC-3, PC-3 cell line, read-out: pAKT S473 Cell IC50.
The mark [4] stands for this setting: Homo sapiens, p-AKT S473, PC-3 cells, mean of N runs, read-out: Cell pEC50 (converted).
Where [5] appears, read: Homo sapiens, PC-3, read-out: Cell pEC50 (converted).
[6] abbreviates: Homo sapiens, PC-3, read-out: pAKT S473 Cell IC50.

Read-outs that look alike come from different tables or passages of the source.

On to `C[C@@]12COCCN1c1nc(-c3cnc4[nH]ccc4c3)ncc1N(C1CCOC1)C2=O` (stereo partly drawn) [13a], for which, in series [1] (setting [3]), the concentration for half-maximal inhibition (IC50) (usually the concentration needed to halve the response being measured) turned out to be 74 nM. Also, the EC50 in series [1] (setting [4]) is 74.1 nM. In series [2], the “HLM Clint” value is 12 mL min^–1 kg^–1. In addition, in the series with PI3Kα (Table 2, unit not given), the “PI3Kα Sel” value is on record as 5.
As for `C[C@@]12COCCN1c1nc(-c3cnc4cc[nH]c4c3)ncc1N(C1CCOCC1)C2=O` [4c], the 50% inhibitory concentration (IC50) in series [1] (setting [3]) was 100 nM. Moreover, the EC50 in series [1] (setting [4]) is 105 nM. Further, the “PI3Kα Sel” value in the series on PI3Kα is on record as 13x.
For `C[C@@]12COCCN1c1nc(-c3ccc(NC(=O)NC4CC4)cc3)ncc1N(CC1CC1)C2=O` [3a] the same measures were 38 nM, 38 nM and 100x.
For `Cc1ccc(-c2ncc3c(n2)N2CCOC[C@@]2(C)C(=O)N3C2CCOCC2)c2cc[nH]c12` [4g] the same measures were 26 nM, 25.7 nM and 450x.
Taken in the same sequence, the figures for `Cc1ncc(-c2ncc3c(n2)N2CCOC[C@@]2(C)C(=O)N3C2CCOCC2)c2cc[nH]c12` [4h] were 48 nM, 47.9 nM and 270x.
As for `CC(=O)N1CCC(N2C(=O)[C@]3(C)COCCN3c3nc(-c4cccc5[nH]ccc45)ncc32)CC1` [14a], the EC50 in series [1] (setting [5]) is 55 nM. Further, the IC50 in series [1] (setting [6]) is 55 nM. The “HLM Clint” value in series [2] came to 6 mL min^–1 kg^–1. For the same compound, the “PI3Kα Sel” value with PI3Kα (Table 2, unit not given) is recorded as 120.
As to `C[C@@]12COCCN1c1nc(-c3c[nH]c4ccccc34)ncc1N(C1CCOCC1)C2=O` [4d], the IC50 in series [1] (setting [3]) is at most 30 nM; in series [1] (PC-3 cell line, read-out: pAKT S473 Cell IC50) it was 30 nM. Besides, the EC50 in series [1] (setting [4]) was 29.5 nM. The “PI3Kα Sel” value in the series on PI3Kα came to 120x.
For `COCCCN1C(=O)[C@]2(C)COCCN2c2nc(-c3cnc4[nH]ccc4c3)ncc21` [13b], the half-inhibitory concentration (IC50) in series [1] (setting [3]) was 57 nM. The EC50 in series [1] (setting [4]) was 57.5 nM. The “HLM Clint” value in series [2] was determined as 32 mL min^–1 kg^–1. For the same compound, the “PI3Kα Sel” value in the series with PI3Kα (Table 2, unit not given) worked out at 9.
In the case of `C[C@@]12COCCN1c1nc(-c3cnc4[nH]ccc4c3)ncc1N(C1CCN(S(C)(=O)=O)CC1)C2=O` [13e], the EC50 in series [1] (setting [5]) was 120 nM. Also, in series [1] (setting [6]), the IC50 worked out at 120 nM. Further, the “HLM Clint” value in series [2] came to 6 mL min^–1 kg^–1. Further, the “PI3Kα Sel” value in the series on PI3Kα (Table 2, unit not given) is reported as 14.
As to `C[C@@]12COCCN1c1nc(-c3cnc4[nH]ccc4c3)ncc1N(C1CCOCC1)C2=O` [4b], the 50% inhibitory concentration (IC50) in series [1] (setting [3]) turned out to be 62 nM. Further, the EC50 in series [1] (setting [4]) was 61.7 nM. For the same compound, in series [2], the “HLM Clint” value is recorded as 6 mL min^–1 kg^–1. Moreover, the “PI3Kα Sel” value in the series on PI3Kα came out at 23x; in the series with PI3Kα (Table 2, unit not given), 23.
Consider `C[C@@]12COCCN1c1nc(-c3cnc4[nH]ccc4c3)ncc1N(C1(CCO)CC1)C2=O` [13d], for which the IC50 in series [1] (setting [3]) worked out at 61 nM. The EC50 in series [1] (setting [4]) is 61.7 nM. Besides, the “HLM Clint” value in series [2] came out at 11 mL min^–1 kg^–1. Besides, the “PI3Kα Sel” value in the series on PI3Kα (Table 2, unit not given) was determined as 59.
`C[C@@]12COCCN1c1nc(-c3cnc4cc[nH]c4c3)ncc1N(CC1CC1)C2=O` [3c]: in series [1] (setting [3]), the IC50 was 91 nM. Also, the EC50 in series [1] (setting [4]) was 91.2 nM. In addition, in the series with PI3Kα, the “PI3Kα Sel” value amounted to 26x.
`C[C@@]12COCCN1c1nc(-c3cncc4[nH]ccc34)ncc1N(C1CCOCC1)C2=O` [4f]: the IC50 in series [1] (setting [3]) was determined as 17 nM. For the same compound, the EC50 in series [1] (setting [4]) is 16.6 nM. The “PI3Kα Sel” value in the series on PI3Kα is 84x.
Taken in the same sequence, the figures for `C[C@@]12COCCN1c1nc(-c3ccc(NC(=O)NC4CC4)cc3)ncc1N(C1CCOCC1)C2=O` [4a] were 42 nM, 41.7 nM and 63x.
As for `C[C@@]12COCCN1c1nc(-c3cnc4[nH]ccc4c3)ncc1N(CCCO)C2=O` [13c], the IC50 in series [1] (setting [3]) amounted to 170 nM. Further, the EC50 in series [1] (setting [4]) was 170 nM. Besides, the “HLM Clint” value in series [2] is listed as 9 mL min^–1 kg^–1. For the same compound, in the series on PI3Kα (Table 2, unit not given), the “PI3Kα Sel” value is listed as 9.
For the compound `C[C@@]12COCCN1c1nc(-c3cnc4[nH]ccc4c3)ncc1N(CC1CC1)C2=O` [3b], in series [1] (setting [3]), the half-inhibitory concentration (IC50) turned out to be 51 nM. In series [1] (setting [4]), the EC50 was 51.3 nM. Moreover, the “PI3Kα Sel” value with PI3Kα amounted to 48x.
